Reference: patent US20080051401A1, “2,4,6-Trisubstituted Pyrimidines as Phosphotidylinositol (Pi) 3-Kinase Inhibitors and Their Use in the Treatment of Cancer” (priority 2004, published 2008)

Tests used:
[1] = system: phosphorylation of Serine 473 in Akt in MDA-MB-468 human breast adenocarcinoma cell line; experiment: In vitro phospho-Ser473 Akt assay, Test (b); format: cell-based; conditions: MDA-MB-468 cells, 2 hours incubation, read-out: IC50, inhibition of phosphorylation of Serine 473 in Akt
Method: (b) In Vitro Phospho-Ser473 Akt Assay
This assay determines the ability of test compounds to inhibit phosphorylation of Serine 473 in Akt as assessed using Acumen Explorer technology (Acumen Bioscience Limited), a plate reader that can be used to rapidly quantitate features of images generated by laser-scanning.
A MDA-MB-468 human breast adenocarcinoma cell line (LGC Promochem, Teddington, Middlesex, UK, Catalogue No. HTB-132) was routinely maintained at 37° C. with 5% CO2 up to a confluency of 70-90% in Dulbecco's modified Eagle's growth medium (DMEM; Invitrogen Limited, Paisley, UK Catalogue No. 41966-029) containing 10% heat-inactivated foetal calf serum (FCS; Sigma, Poole, Dorset, UK, Catalogue No. F0392) and 1% L-glutamine (Gibco, Catalogue No. 25030-024).
For the assay, the cells were detached from the culture flask using ‘Accutase’ (Innovative Cell Technologies Inc., San Diego, Calif., USA; Catalogue No. AT104) using standard tissue culture methods and resuspended in media to give 1.7×10^5 cells per ml. Aliquots (90 μl) were seeded into each of the inner 60 wells of a black Packard 96 well plate (PerkinElmer, Boston, Mass., USA; Catalogue No. 6005182) to give a density of ˜15000 cells per well. Aliquots (90 μl) of culture media were placed in the outer wells to prevent edge effects. The cells were incubated overnight at 37° C. with 5% CO2 to allow them to adhere.
On day 2, the cells were treated with test compounds and incubated for 2 hours at 37° C. with 5% CO2. Test compounds were prepared as 10mM stock solutions in DMSO and serially diluted as required with growth media to give a range of concentrations that were 10-fold the required final test concentrations. Aliquots (10 μl) of each compound dilution were placed in a well (in triplicate) to give the final required concentrations. […]
All subsequent aspiration and wash steps were carried out using a Tecan 96 well plate washer (aspiration speed 10 mm/sec). […] An aliquot of PBS (50 μl) was added to each well and the plates were sealed with black plate sealers and the fluorescence signal was detected and analysed. […]

[2] = system: MDA-MB-468 human breast adenocarcinoma cell line; experiment: In vitro MDA-MB-468 human breast adenocarcinoma proliferation assay, Test (c); format: cell-based; conditions: BrdU incorporation, 48 hours incubation, read-out: IC50, inhibition of MDA-MB-468 cell growth
From the text: (c) In Vitro MDA-MB-468 Human Breast Adenocarcinoma Proliferation Assay
This assay determines the ability of test compounds to inhibit cell proliferation as assessed using Cellomics Arrayscan technology. A MDA-MB-468 human breast adenocarcinoma cell line (LGC Promochem, Catalogue No. HTB-132) was routinely maintained as described in Biological Assay (b) hereinbefore.
For the proliferation assay, the cells were detached from the culture flask using Accutase and seeded into the inner 60 wells of a black Packard 96 well plate at a density of 8000 cells per well in 100 μl of complete growth media. The outer wells contained 100 μl of sterile PBS. The cells were incubated overnight at 37° C. with 5% CO2 to allow them to adhere.
On day 2, the cells were treated with test compounds and incubated for 48 hours at 37° C. with 5% CO2. […]
BrdU incorporation was detected by incubation for 1 hour at ambient temperature with mouse anti-BrdU antibody (50 μl; Caltag, Burlingame, Calif., US; Catalogue No. MD5200) that was diluted 1:40 in PBS containing 1% BSA and 0.05% Tween-20. […] Subsequently, PBS (100 μl) was added to each well and the plates were analysed using a Cellomics array scan to assess total cell number and number of BrdU positive cells.
Fluorescence dose response data obtained with each compound were analysed and the degree of inhibition of MDA-MB-468 cell growth was expressed as an IC50 value.

p110α Type Ia human PI3K = molecular target: T1, p110α Type Ia human PI3K (Homo sapiens, UniProt P42336); experiment: In vitro enzyme assay (AlphaScreen), Test (a); format: biochemical; conditions: recombinant enzyme, PI(4,5)P2 substrate, ATP 4 μM, read-out: IC50 versus p110α Type Ia human PI3K
T1 construct: full length DNA of each of the p110α, p110β and p110δ Type Ia human PI3K p110 isoforms; 6-His; made in house
T1 sequence (P42336 whole entry, canonical isoform): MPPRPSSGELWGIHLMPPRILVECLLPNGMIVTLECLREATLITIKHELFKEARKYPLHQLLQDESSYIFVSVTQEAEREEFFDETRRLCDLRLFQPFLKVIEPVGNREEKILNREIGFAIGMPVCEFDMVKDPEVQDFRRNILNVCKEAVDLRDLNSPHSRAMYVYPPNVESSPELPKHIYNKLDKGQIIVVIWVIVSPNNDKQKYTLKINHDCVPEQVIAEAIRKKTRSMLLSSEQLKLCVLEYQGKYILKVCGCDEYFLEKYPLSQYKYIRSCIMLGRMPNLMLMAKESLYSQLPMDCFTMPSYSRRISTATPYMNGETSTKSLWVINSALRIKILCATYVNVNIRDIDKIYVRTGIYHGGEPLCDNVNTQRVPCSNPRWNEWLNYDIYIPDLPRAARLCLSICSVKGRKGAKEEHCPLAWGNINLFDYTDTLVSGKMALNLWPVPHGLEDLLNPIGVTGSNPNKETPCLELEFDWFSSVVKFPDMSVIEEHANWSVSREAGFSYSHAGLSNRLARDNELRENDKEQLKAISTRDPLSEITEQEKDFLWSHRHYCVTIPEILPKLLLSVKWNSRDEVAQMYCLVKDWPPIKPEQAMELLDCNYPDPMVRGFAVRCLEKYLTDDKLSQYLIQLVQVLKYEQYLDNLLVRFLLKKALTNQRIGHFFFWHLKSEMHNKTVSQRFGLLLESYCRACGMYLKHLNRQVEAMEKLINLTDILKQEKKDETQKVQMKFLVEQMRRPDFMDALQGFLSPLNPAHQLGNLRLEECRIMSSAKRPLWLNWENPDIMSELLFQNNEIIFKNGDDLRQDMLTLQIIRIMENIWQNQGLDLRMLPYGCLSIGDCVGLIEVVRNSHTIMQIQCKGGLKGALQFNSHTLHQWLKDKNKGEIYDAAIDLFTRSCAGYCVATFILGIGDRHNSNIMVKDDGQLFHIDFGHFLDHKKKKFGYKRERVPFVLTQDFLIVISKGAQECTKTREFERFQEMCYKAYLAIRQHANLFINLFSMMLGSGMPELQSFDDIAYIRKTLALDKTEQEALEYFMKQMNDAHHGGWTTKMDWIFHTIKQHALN
T1 sequence (P27986 whole entry partner, canonical isoform): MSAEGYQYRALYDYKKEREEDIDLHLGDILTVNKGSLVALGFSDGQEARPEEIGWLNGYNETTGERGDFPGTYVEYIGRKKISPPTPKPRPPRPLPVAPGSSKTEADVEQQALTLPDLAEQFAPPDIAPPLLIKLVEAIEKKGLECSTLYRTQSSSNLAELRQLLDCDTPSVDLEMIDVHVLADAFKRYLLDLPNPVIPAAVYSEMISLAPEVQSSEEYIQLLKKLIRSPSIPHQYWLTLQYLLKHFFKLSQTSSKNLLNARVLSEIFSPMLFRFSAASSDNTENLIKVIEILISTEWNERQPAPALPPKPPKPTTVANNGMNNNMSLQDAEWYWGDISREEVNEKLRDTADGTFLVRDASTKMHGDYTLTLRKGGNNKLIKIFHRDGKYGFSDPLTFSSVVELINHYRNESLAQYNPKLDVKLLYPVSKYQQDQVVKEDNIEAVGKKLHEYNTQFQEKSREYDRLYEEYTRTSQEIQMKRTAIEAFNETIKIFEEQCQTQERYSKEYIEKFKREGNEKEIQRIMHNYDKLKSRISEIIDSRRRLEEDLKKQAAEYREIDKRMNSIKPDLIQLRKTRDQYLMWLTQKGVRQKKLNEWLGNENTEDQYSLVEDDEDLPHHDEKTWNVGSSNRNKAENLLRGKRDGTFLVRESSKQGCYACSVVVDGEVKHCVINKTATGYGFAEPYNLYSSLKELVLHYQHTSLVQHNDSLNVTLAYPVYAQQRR
From the text: (a) In Vitro Enzyme Assay
The assay used AlphaScreen technology (Gray et al., Analytical Biochemistry, 2003, 313: 234-245) to determine the ability of test compounds to inhibit phosphorylation by recombinant Type I PI3K enzymes of the lipid PI(4,5)P2.
DNA fragments encoding human PI3K catalytic and regulatory subunits were isolated from cDNA libraries using standard molecular biology and PCR cloning techniques. The selected DNA fragments were used to generate baculovirus expression vectors. In particular, full length DNA of each of the p110α, p110β and p110δ Type Ia human PI3K p110 isoforms (EMBL Accession Nos. HSU79143, S67334, Y10055 for p110α, p110β and p110δ respectively) were sub-cloned into a pDEST10 vector (Invitrogen Limited, Fountain drive, Paisley, UK). The vector is a Gateway-adapted version of Fastbac1 containing a 6-His epitope tag. A truncated form of Type Ib human PI3K p110γ isoform corresponding to amino acid residues 144-1102 (EMBL Accession No. X8336A) and the full length human p85α regulatory subunit (EMBL Accession No. HSP13KIN) were also sub-cloned into pFastBac1 vector containing a 6-His epitope tag. The Type Ia p110 constructs were co-expressed with the p85α regulatory subunit. Following expression in the baculovirus system using standard baculovirus expression techniques, expressed proteins were purified using the His epitope tag using standard purification techniques.
DNA corresponding to amino acids 263 to 380 of human Grp1 PH domain was isolated from a cDNA library using standard molecular biology and PCR cloning techniques. […]
Biotinylated-DiC8-PI(3,4,5)P3 (50 nM; Cell Signals Inc., Catalogue No. 107), recombinant purified GST-Grp1 PH protein (2.5 nM) and AlphaScreen Anti-GST donor and acceptor beads (100 ng; Packard Bioscience Limited, Station Road, Pangbourne, Berkshire, UK, Catalogue No. 6760603M) were added and the assay plates were left for about 5 to 20 hours at ambient temperature in the dark. The resultant signals arising from laser light excitation at 680 nm were read using a Packard AlphaQuest instrument. […]

| Structure (SMILES) | IC50 [1] [nM] | IC50 [2] [nM] | IC50 (p110α Type Ia human PI3K) [nM] |
| --- | --- | --- | --- |
| O=C(Nc1cccc(-c2cc(N3CCOCC3)nc(-c3cccc(CO)c3)n2)c1)C1CCNCC1 [Example 1, 2-(3-hydroxymethylphenyl)-6-morpholino-4-(3-piperidin-4-ylcarbonylaminophenyl)pyrimidine] | ~5000 | ~8000 | ~100 |
| O=C(Nc1cccc(-c2cc(N3CCOCC3)nc(-c3cccc(O)c3)n2)c1)C1CCCNC1 (stereo not shown) [Example 6, 2-(3-hydroxyphenyl)-6-morpholino-4-(3-piperidin-3-ylcarbonylaminophenyl)pyrimidine] | ~300 |  | ~100 |
| O=C(Nc1cccc(-c2cc(N3CCOCC3)nc(-c3cccc(CO)c3)n2)c1)N1CCNCC1 [Example 10, 2-(3-hydroxymethylphenyl)-6-morpholino-4-(3-piperazin-1-ylcarbonylaminophenyl)pyrimidine] | ~500 |  | ~300 |
